The subject of data set [1] is HIV-1 infection of TZM-bl cells. Briefly: HIV-1 infectivity enhancement assay, β-galactosidase luminescence. It is filed as cell-based. To be noted: for Log10 Infection Rel EF-C: log10 of infection relative to EF-C; for Log10 Inf. rel. to EF-C: log10 of HIV-1 infection of TZM-bl cells relative to EF-C, Fig S15 source data, asymmetric std dev errors; for Log10 of Rel to EFC (Feb2021): log10 of infectivity relative to EF-C; for Absolute Infectivity / RLU /s (Feb2021): figures match the 1.3 µM column; for Rel-to EFC / n-fold to virus: Fig S8 panels B, D; for Rel-to EFC: infectivity enhancement relative to EF-C; for n-fold to virus: infectivity n-fold relative to virus alone.

The format of data set [2] is physicochemical. The conditions noted are these: for ThT Cat. / ThT-Fluorescence (categorical): ThT-active if fluorescence at least twice the control; for Tht category (> 1.5 to blank = +): category 1/0. A digest of the protocol: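 Fibrils (1 mg/mL solution) were mixed with 50 µM ThT in PBS for 15 min at RT, and fluorescence was read at λex 440/λem 488 nm against a PBS blank, as a triplicate mean ± SD. Zeta potential came from electrophoretic mobility (Smoluchowski) after 1 d aggregation at 1 mg/mL in PBS pH 7.4, diluted into 1 mM KCl.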

Data set [3] in a line: Zeta-potential measurement. It is filed as physicochemical. The conditions noted are these: for Zeta pot. / mV: 1 mg/mL in PBS pH 7.4 from 10 mg/mL DMSO stock, 1 d RT, 60 µL diluted in 600 µL 1 mM KCl, Zetasizer Nano ZS, Smoluchowski, mean of triplicate; for Zeta-pot. / mV: zeta potential of peptide, Fig S15 source data. A digest of the protocol: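 Charge on peptide aggregates was assessed by electrophoretic mobility in 1 mM KCl, converted per Smoluchowski. Prior aggregation: 1 mg/mL, pH 7.4 PBS, 1 d, RT.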

The mark [4] stands for this setting: n-fold infection vs virus only, relative to that of EF-C, 1.3 µM peptide.
Where [5] appears, read: infectivity class (low / medium / high) of the peptide in the sequence-pattern analysis, Fig. S22-A4, class limits not given.
Where [6] appears, read: infectivity enhancement relative to EF-C (=1), Feb2021 run.
The mark [7] stands for this setting: infectivity n-fold relative to virus only, Feb2021 run.
[8] abbreviates: ThT fluorescence relative to blank (42.1851851851852 a.u.).
The mark [9] stands for this setting: infectivity class (low / medium / high) of each library peptide, main list in c1-c6, same classes repeated in sub-lists of sequences containing the hydrophobicity/charge patterns P+,H0,P+,H0,P0,H0,P0, P+,H0,P0,H0,P0,H0,P0, P+,H0,P0,H0.
The mark [10] stands for this setting: Feb2021, infectivity relative to virus only.
Where [11] appears, read: Feb2021, n-fold infectivity relative to EF-C.
Where [12] appears, read: ThT fluorescence relative to blank, blank = 42.1851851851852.

Like-named read-outs stand apart in the source and are kept apart here.

Take CRLSLSLS: the “Inf. rel. EF-C” value in data set [1] (HIV-1 infection relative to EF-C, Fig 23 plot, panels A and B, mean of 3 values) came to 0.3134; in data set [1] (HIV-1 infection relative to EF-C, Fig 23 plot, single data point, replicate 2) it was 0.2799; in data set [1] (HIV-1 infection relative to EF-C, Fig 23 plot, single data point, replicate 3), 0.2877; in data set [1] (setting [4]), 0.31. Further, in data set [1] (Figure 6C), the “Log10 Infection Rel EF-C” value is listed as -0.5039. Further, the “ThT Cat. / ThT-Fluorescence (categorical)” value in data set [2] is 0 (ThT-inactive (N-Fold <2)). Further, in data set [3], the “Zeta pot. / mV” value is recorded as 8.977 mV. Further, the “Zeta-Potential / mV” value in data set [3] (mean, Figure 6C) came out at 8.977 mV.
EIEIQINM [TM95 / (TM75)]: in data set [1] (setting [5]), the infectivity result was “low”. Also, in data set [1] (setting [6]), the “Rel-to EFC (Feb-2021)” value is reported as 0.03629. In addition, in data set [1] (setting [7]), the “n-fold to virus (Feb2021)” value was 1.525. For the same substance, in data set [1], the “Log10 Inf. rel. to EF-C” value is on record as -1.44. Moreover, in data set [1] (Feb2021 run), the “Log10 of Rel to EFC (Feb2021)” value is given as -1.44. For the same substance, the “Tht rel to blank (42.1851851851852)” value in data set [2] (setting [8]) was determined as 1.473. In addition, in data set [3], the “Zeta category ( +1 = if > 4 mV;-1 = if < -4 mV; 0 = -4mV to 4 mV)” value (“Zeta category” below) is on record as -1 (-1 = if < -4 mV) and the “Zeta-pot. / mV” value is listed as -23.33 mV. In addition, the “Zeta Pot. / mV” value in data set [3] (mean, Std in separate column) is -23.33 mV.
On to EIEIQINMWQ [VH8], for which, in data set [1] (setting [9]), the infectivity entry was “medium”. The “Rel-to EFC (Feb-2021)” value in data set [1] (setting [6]) is 0.1315. Besides, in data set [1] (setting [7]), the “n-fold to virus (Feb2021)” value worked out at 5.526. Further, the “Log10 Inf. rel. to EF-C” value in data set [1] is listed as -0.881. Moreover, the “Log10 of Rel to EFC (Feb2021)” value in data set [1] (Feb2021 run) is recorded as -0.881. For the same substance, the “Tht rel to blank (42.1851851851852)” value in data set [2] (setting [8]) is recorded as 4.145. Further, in data set [3], the “Zeta category” value is recorded as -1 (-1 = if < -4 mV) and the “Zeta-pot. / mV” value was -19.13 mV. Besides, the “Zeta Pot. / mV” value in data set [3] (mean, Std in separate column) is given as -19.13 mV.
Consider GYVIIK [reference compound], for which the “infectivity enhancement, in words” value in data set [1] (fibril-forming peptides with positive zeta-potential, low count rate) is “do not enhance infectivity”. In addition, the “Log10 Infection Rel EF-C” value in data set [1] (Figure 7B) is -0.99. Further, the “Inf. rel. EF-C” value in data set [1] (setting [4]) is 0.10. For the same substance, in data set [2], the “ThT Cat. / ThT-Fluorescence (categorical)” value was 0 (ThT-inactive (N-Fold <2)). Also, in data set [3], the “Zeta pot. / mV” value was determined as 9.9 mV. In addition, the “Zeta-Potential / mV” value in data set [3] (mean, Figure 7B) came to 9.88 mV.
Take HHHHKAKAKAKAWWWW [TM8]: in data set [1] (Feb2021), the “Absolute Infectivity / RLU /s (Feb2021)” value is listed as 3233 RLU /s and the “Log10 of Rel to EFC (Feb2021)” value is -1.048. Moreover, the “n-fold to virus (Feb2021)” value in data set [1] (setting [10]) is 3.76. In addition, the “Rel-to EFC (Feb-2021)” value in data set [1] (setting [11]) is reported as 0.08948. Moreover, in data set [1] (setting [5]), the infectivity result was “low”. Further, the “Log10 Inf. rel. to EF-C” value in data set [1] was -1.048. Moreover, the “Tht rel to blank (42.1851851851852)” value in data set [2] (setting [12]) is recorded as 3.672. Moreover, the “Tht category (> 1.5 to blank = +)” value in data set [2] is recorded as 1 (ThT. Cat is 1, if Rel. ThT >2). Moreover, in data set [3], the “Zeta Pot. / mV” value is given as 17.4 mV, the “Zeta category” value is given as 1 (+1 = if > 4 mV) and the “Zeta-pot. / mV” value is 17.4 mV.
On to HHHHKAKAKAKAYYYY [TM10], for which, in data set [1] (Feb2021), the “Absolute Infectivity / RLU /s (Feb2021)” value is listed as 203.3 RLU /s and the “Log10 of Rel to EFC (Feb2021)” value was -1.883. Moreover, the “n-fold to virus (Feb2021)” value in data set [1] (setting [10]) came out at 0.5495. Besides, the “Rel-to EFC (Feb-2021)” value in data set [1] (setting [11]) stood at 0.01308. For the same substance, the infectivity entry in data set [1] (setting [5]) is on record as “low”. In addition, the “Log10 Inf. rel. to EF-C” value in data set [1] is recorded as -1.883. Moreover, the “Tht rel to blank (42.1851851851852)” value in data set [2] (setting [12]) was determined as 1.39. The “Tht category (> 1.5 to blank = +)” value in data set [2] is 0 (ThT-inactive (N-Fold <2)). In addition, in data set [3], the “Zeta Pot. / mV” value is recorded as 7.03 mV, the “Zeta category” value is reported as 1 (+1 = if > 4 mV) and the “Zeta-pot. / mV” value came to 7.03 mV.
As to HHHHKIKIQINMYYYY [TM16], in data set [1] (Feb2021), the “Absolute Infectivity / RLU /s (Feb2021)” value is recorded as 22408.88889 RLU /s and the “Log10 of Rel to EFC (Feb2021)” value is on record as 0.04454. In data set [1] (setting [10]), the “n-fold to virus (Feb2021)” value is 46.56. The “Rel-to EFC (Feb-2021)” value in data set [1] (setting [11]) is on record as 1.108. Also, in data set [1], the “Rel-to EFC” value is 1.108, the n-fold to virus is on record as 46.56 and the “Log10 Inf. rel. to EF-C” value amounted to 0.04454. The infectivity entry in data set [1] (setting [9]) is “high”. The infectivity result in data set [1] (setting [5]) is listed as “high”. Besides, the “Tht rel to blank (42.1851851851852)” value in data set [2] (setting [12]) amounted to 12.17. Moreover, in data set [2], the “Tht category (> 1.5 to blank = +)” value is 1 (ThT. Cat is 1, if Rel. ThT >2). In data set [3], the “Zeta Pot. / mV” value came to 7.807 mV, the “Zeta category” value is listed as 1 (+1 = if > 4 mV) and the “Zeta-pot. / mV” value was found to be 7.807 mV.
Regarding HIHIQIC [CN12], in data set [1] (Feb2021), the “Absolute Infectivity / RLU /s (Feb2021)” value worked out at 4621 RLU /s and the “Log10 of Rel to EFC (Feb2021)” value is reported as -0.5672. Moreover, the “n-fold to virus (Feb2021)” value in data set [1] (setting [10]) came to 11.38. Besides, in data set [1] (setting [11]), the “Rel-to EFC (Feb-2021)” value worked out at 0.2709. For the same substance, in data set [1], the “Rel-to EFC” value is recorded as 0.2709, the n-fold to virus was 11.38 and the “Log10 Inf. rel. to EF-C” value is -0.5672. Also, the infectivity result in data set [1] (setting [9]) was “medium”. Also, the “Tht rel to blank (42.1851851851852)” value in data set [2] (setting [12]) was determined as 12.46. Further, in data set [2], the “Tht category (> 1.5 to blank = +)” value is 1 (ThT. Cat is 1, if Rel. ThT >2). Also, in data set [3], the “Zeta Pot. / mV” value is -3.687 mV, the “Zeta category” value is given as 0 (0 = -4mV to 4 mV) and the “Zeta-pot. / mV” value was -3.687 mV.
As for RGDSGGGGGGKIKIQIC [TM114 / RC17], in data set [1], the “Rel-to EFC” value came to 0.8654, the n-fold to virus was determined as 36.36 and the “Log10 Inf. rel. to EF-C” value is recorded as -0.0628. For the same substance, the infectivity result in data set [1] (setting [5]) is listed as “high”. In data set [3], the “Zeta-pot. / mV” value worked out at 16.7 mV.

Source of the values: paper PMC10447463, “Data-mining unveils structure–property–activity correlation of viral infectivity enhancing self-assembling peptides” (Nature Communications, 2023).
